From publication PMC5065237, “Investigation into the Mode of Phosphate Activation in the 4-Hydroxy-4-Methyl-2-Oxoglutarate/4-Carboxy-4-Hydroxy-2-Oxoadipate Aldolase from Pseudomonas putida F1” (PLoS ONE, 2016)

Legend:
[1] = molecular target: T1, HMG/CHA aldolase (Pseudomonas putida, UniProt A5W059); experiment: aldol cleavage, LDH-coupled NADH oxidation at […] nm; assay type: biochemical; conditions: substrate inhibition constant, 1 mM MgCl2, 0.1 M HEPES pH 8.0, 25 °C, racemic substrate
T1 construct: gene Pput_1361; recombinant from pT7-7, expressed in E. coli; chelex-treated apo-enzyme reconstituted with MgCl2

[2] = molecular target: T1, HMG/CHA aldolase; experiment: decarboxylation, LDH-coupled NADH oxidation at […] nm; assay type: biochemical; conditions: substrate inhibition constant, 1 mM MgCl2, 0.1 M HEPES pH 8.0, 25 °C

T1 sequence (A5W059 whole entry): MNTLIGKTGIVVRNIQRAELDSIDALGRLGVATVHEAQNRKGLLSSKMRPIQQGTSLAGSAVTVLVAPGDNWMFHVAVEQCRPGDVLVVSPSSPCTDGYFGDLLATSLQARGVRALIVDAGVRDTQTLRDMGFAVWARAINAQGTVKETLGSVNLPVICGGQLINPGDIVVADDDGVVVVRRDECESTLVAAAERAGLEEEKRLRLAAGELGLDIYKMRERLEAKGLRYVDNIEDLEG

| Structure (SMILES) | Without Pi / Ksi [1] [mM] | Without Pi / Ksi [2] [mM] |
| --- | --- | --- |
| CC(O)(CC(=O)C(=O)O)C(=O)O (racemic) [HMG] | 1.80 ± 0.091 |  |
| O=C(O)CC(=O)C(=O)O [OAA] |  | 0.360 ± 0.049 |
